Where two headings read alike, the source gives them in different places.
Experiments:
[1] = Pharmacokinetic (PK) analysis in rats; assay type: in vivo, Sprague Dawley (SD) rats; settings: SD rats, single intragastric administration, 5 mg/kg; for Peak Time tmax: (sampling in hours); for AUC(0-t) / AUC(0-inf) / half-life / MRT / Cmax: Sprague-Dawley, rat, plasma, po; for AUC(0-t): read-out: Area Under Curve AUC0-t; for AUC(0-inf): read-out: Area Under Curve AUC0-∞; for half-life: read-out: Half-Time t1/2 (converted); for MRT: read-out: Mean Residence Time MRT; for Cmax: read-out: Plasma Concentration Cmax
Procedure: 1) 0.2 ml of intravenous blood was collected and placed in a K2EDTA test tube. The blood was centrifuged at room temperature at the speed of 1000˜3000×g for 5˜20 minutes to isolate the plasma, which was then stored at −80° C.
2) 160 μL of acetonitrile was added to 40 μL of plasma sample for precipitation, and then the mixture was centrifuged at the speed of 500˜2000×g for 5˜20 minutes.
3) 100 μL of treated solution was taken, and the concentration of the test compound was analyzed by LC/MS/MS. The LC/MS/MS analytical instrument was AB Sciex API 4000. • Liquid chromatography analysis: • Condition of Liquid chromatography: Shimadzu LC-20AD pump • Chromatographic column: phenomenex Gemiu 5 um C18 50×4.6 mm • Mobile phase: Solution A is 0.1% formic acid aqueous solution, and Solution B is acetonitrile • Flow rate: 0.8 mL/min • Elution time: 0-3.5 minutes, the eluent was used as follows: […]

Hep 3B cells = assay: Inhibition of Hep 3B cell proliferation (CellTiter-Glo); assay type: cell-based
Procedure: In this experiment, the inhibitory effect of the compounds on Hep 3B cell proliferation was tested by a CellTiter-Glo method, and the half maximal inhibitory concentration (IC50) of the compounds on the activity of cell proliferation was determined.
1) A 96-well cell culture plate was seeded with 50˜100 μL of Hep 3B cell suspension at a density of 1˜5×10^4 cells/ml. The culture plate was incubated in an incubator for 16˜24 hours (37° C., 5% CO2).
(§1) 2) Different concentrations of the test compound in a gradient dilution were added to the cells in the culture plate. The culture plate was incubated in an incubator for 72 hours (37° C., 5% CO2).
(§2) 3) 50˜100 μL of CellTiter-Glo reagent were added to each well. Then, the culture plate was shaken or left to stand for 5˜30 minutes at room temperature.
(§3) 4) The chemiluminescence signal values of each plate were determined by a microplate reader.
(§4) 5) The inhibition rates were calculated according to the chemiluminescence signal values.

SK-HEP-1 cells = assay: Inhibition of SK-HEP-1 cell proliferation (CellTiter-Glo); assay type: cell-based; settings: read-out: SK-HEP-1 IC50
Procedure: In this experiment, the inhibitory effect of the compounds on SK-HEP-1 cell proliferation was tested by a CellTiter-Glo method, and the half maximal inhibitory concentration (IC50) of the compounds on the activity of cell proliferation was determined.
1) A 96-well cell culture plate was seeded with 50˜100 μL of SK-HEP-1 cell suspension at a density of 1˜5×10^4 cells/ml. The culture plate was incubated in an incubator for 16˜24 hours (37° C., 5% CO2).
as §1, §2, §3, §4
(§5) 6) The IC50 of the compound was obtained by curve fitting according to the inhibition rates at different concentrations, and the cell activity of the specific example compounds is shown in Table 2.

HuH-7 cells = assay: Inhibition of HuH-7 cell proliferation (CellTiter-Glo); assay type: cell-based; settings: Homo sapiens, Huh-7, 72 h, read-out: HuH-7 IC50
Procedure: In this experiment, the inhibitory effect of the compounds on HuH-7 cell proliferation was tested by a CellTiter-Glo method, and the half maximal inhibitory concentration (IC50) of the compounds on the activity of cell proliferation was determined.
1) A 96-well cell culture plate was seeded with 50˜100 μL of HuH-7 cell suspension at a density of 1˜5×10^4 cells/ml. The culture plate was incubated in an incubator for 16˜24 hours (37° C., 5% CO2).
as §1
3) 50˜100 μL of CellTiter-Glo reagent was added to each well. Then, the culture plate was shaken or left to stand for 5˜30 minutes at room temperature.
as §3, §4, §5

FGFR1 kinase = FGFR1 kinase (Homo sapiens (Human), UniProt P11362); assay: Enzymologic experiment of FGFR1 (TR-FRET); assay type: biochemical; settings: FGFR1 kinase activity
Sequence of FGFR1 kinase (P11362 22-822): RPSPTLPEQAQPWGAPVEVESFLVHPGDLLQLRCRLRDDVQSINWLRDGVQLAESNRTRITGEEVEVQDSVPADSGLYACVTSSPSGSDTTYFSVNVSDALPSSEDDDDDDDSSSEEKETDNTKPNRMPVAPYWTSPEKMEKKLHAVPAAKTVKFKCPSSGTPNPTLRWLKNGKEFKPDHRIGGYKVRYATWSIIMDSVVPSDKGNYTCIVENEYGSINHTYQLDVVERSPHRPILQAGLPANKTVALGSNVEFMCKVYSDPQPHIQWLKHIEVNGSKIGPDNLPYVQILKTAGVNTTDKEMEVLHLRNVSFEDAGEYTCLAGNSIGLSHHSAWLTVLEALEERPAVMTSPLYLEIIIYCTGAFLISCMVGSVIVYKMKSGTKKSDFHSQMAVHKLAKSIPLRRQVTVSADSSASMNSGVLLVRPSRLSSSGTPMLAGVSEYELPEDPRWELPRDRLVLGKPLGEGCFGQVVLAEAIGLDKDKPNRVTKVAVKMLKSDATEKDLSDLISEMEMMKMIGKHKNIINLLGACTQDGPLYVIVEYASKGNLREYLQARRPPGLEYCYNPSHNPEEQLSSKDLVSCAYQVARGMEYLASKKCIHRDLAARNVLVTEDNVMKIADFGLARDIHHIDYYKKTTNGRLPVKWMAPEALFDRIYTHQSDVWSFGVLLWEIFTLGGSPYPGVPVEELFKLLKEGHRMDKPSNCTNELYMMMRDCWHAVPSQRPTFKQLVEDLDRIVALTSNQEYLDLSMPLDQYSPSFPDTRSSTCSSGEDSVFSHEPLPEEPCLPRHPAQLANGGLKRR
Procedure: In this experiment, the inhibitory effect of the compounds on FGFR1 kinase activity was tested by a fluorescence resonance energy transfer (TR-FRET) method, and the half maximal inhibitory concentration (IC50) of the compounds on the FGFR1 kinase activity was determined.
1) 1˜5 μL of FGFR1 enzyme solution was added to a 384-well plate, and the final concentration of the enzyme was 0.1˜5 nM.
2) 1˜5 μL of diluted solution in gradient of the compound was added.
3) 1˜5 μL of a substrate mixture containing substrate polypeptide with a final concentration of 5˜50 nM and ATP with a final concentration of 10˜200 μM was added.
4) The mixture was incubated for 0.5˜3 hours at room temperature.
5) 10 μL of EDTA and a test solution comprising labeled antibody were added, and the plate was incubated for 1 hour at room temperature.
6) The fluorescence signal values of each plate were determined by a microplate reader at 665 nm.
7) The inhibition rates were calculated according to the fluorescence signal values.
8) The IC50 of the compound was obtained by curve fitting according to the inhibition rates at different concentrations, and the enzymatic activity of the specific example compounds is shown in Table 1.

[2] = Homo sapiens, Hep3B, 72 h, read-out: Hep 3B IC50, Hep 3B cell proliferation, 72 hours, CellTiter-Glo

Row | SMILES | Peak Time tmax [1] [h] | AUC(0-t) [1] [ng·h/mL] | AUC(0-inf) [1] [ng·h/mL] | half-life [1] [min] | MRT [1] [h] | Cmax [1] [ng/mL] | IC50 (Hep 3B cells; [2]) [nM] | IC50 (SK-HEP-1 cells; Homo sapiens, SK-HEP1, 72 h) [µM] | IC50 (HuH-7 cells) [nM] | IC50 (FGFR1 kinase) [µM] | IC50 (Hep 3B cells; read-out: Hep 3B IC50, Hep 3B cell proliferation, 72 hours, CellTiter-Glo) [nM] | IC50 (SK-HEP-1 cells; SK-HEP-1 cell proliferation, 72 hours, CellTiter-Glo) [µM]
1 | CO[C@@H]1CCCC1Nc1cc(NC(=O)N2CCCc3cc(CN4CCOCC4=O)c(C=O)nc32)ncc1C#N (stereo partly drawn) [Example 1, N-(5-Cyano-4-(((trans)-2-methoxycyclopentyl)amino)pyridin-2-yl)-7-formyl-6-((3-carbonylmorpholino)methyl)-3,4-dihydro-1,8-naphthyridin-1(2H)-carboxamide] | 0.5 | 1010 | 5040 | 66 | 1.1 | 1140 | 0.7 | > 10 | 3 | – | – | –
2 | N#Cc1cnc(NC(=O)N2CCCc3cc(CN4CCOCC4=O)c(C=O)nc32)cc1NCCOC1CCCC1 [Example 5, N-(5-Cyano-4-((2-(cyclopentyloxy)ethyl)amino)pyridin-2-yl)-7-formyl-6-((3-carbonylmorpholino)methyl)-3,4-dihydro-1,8-naphthyridin-1(2H)-carboxamide] | – | – | – | – | – | – | 8.2 | > 10 | 34.9 | > 10 | – | –
3 | COC1(CNc2cc(NC(=O)N3CCCc4cc(CN5CCOCC5=O)c(C=O)nc43)ncc2C#N)CC1 [Example 9, N-(5-Cyano-4-(((1-methoxycyclopropyl)methyl)amino)pyridin-2-yl)-7-formyl-6-((3-carbonylmorpholino)methyl)-3,4-dihydro-1,8-naphthyridin-1(2H)-carboxamide] | – | – | – | – | – | – | 1.4 | > 10 | 9.1 | > 10 | – | –
4 | CO[C@H]1CCCC1Nc1cc(NC(=O)N2CCCc3cc(CN4CCOCC4=O)c(C=O)nc32)ncc1C#N (stereo partly drawn) [Example 15, N-(5-Cyano-4-(((cis)-2-methoxycyclopentyl)amino)pyridin-2-yl)-7-formyl-6-((3-carbonylmorpholino)methyl)-3,4-dihydro-1,8-naphthyridin-1(2H)-carboxamide] | – | – | – | – | – | – | 3 | > 10 | 4.9 | > 10 | – | –
5 | CO[C@@H]1CCN(c2cc(NC(=O)N3CCCc4cc(CN5CCCCOC5=O)c(C=O)nc43)ncc2C#N)C1 [Example 31, (R)-N-(5-Cyano-4-(3-methoxypyrrolidin-1-yl)pyridin-2-yl)-7-formyl-6-((2-carbonyl-1,3-oxazepin-3-yl)methyl)-3,4-dihydro-1,8-naphthyridin-1(2H)-carboxamide] | 2 | 1920 | 1920 | 76.2 | 4.54 | 3720 | – | > 10 | 6.5 | > 10 | – | –
6 | CO[C@H]1CCN(c2cc(NC(=O)N3CCCc4cc(CN5CCCCOC5=O)c(C=O)nc43)ncc2C#N)C1 [Example 32] | – | – | – | – | – | – | 3.1 | > 10 | 5.8 | > 10 | – | –
7 | N#Cc1cnc(NC(=O)N2CCCc3cc(CN4CCCCOC4=O)c(C=O)nc32)cc1N[C@H]1CCOC1 [Example 33] | – | – | – | – | – | – | 3.7 | > 10 | 7.2 | > 10 | – | –
8 | N#Cc1cnc(NC(=O)N2CCCc3cc(CN4CCCCOC4=O)c(C=O)nc32)cc1N[C@@H]1CCOC1 [Example 34, (R)-N-(5-Cyano-4-((tetrahydrofuran-3-yl)amino)pyridin-2-yl)-7-formyl-6-((2-carbonyl-1,3-oxazepin-3-yl)methyl)-3,4-dihydro-1,8-naphthyridin-1(2H)-carboxamide] | – | – | – | – | – | – | 2.3 | > 10 | 4.9 | > 10 | – | –
9 | COC[C@@H](C)Oc1cc(NC(=O)N2CCCc3cc(CN4CCCCOC4=O)c(C=O)nc32)ncc1C#N [Example 35] | – | – | – | – | – | – | 2.2 | > 10 | 4.6 | > 10 | – | –
10 | CO[C@H]1CCN(c2cc(NC(=O)N3CCCc4cc(CN5C(=O)OC[C@@H]5C)c(C=O)nc43)ncc2C#N)C1 [Example 39, N-(5-Cyano-4-((S)-3-methoxypyrrolidin-1-yl)pyridin-2-yl)-7-formyl-6-(((S)-4-methyl-2-carbonyloxazolidin-3-yl)methyl)-3,4-dihydro-1,8-naphthyridin-1(2H)-carboxamide] | – | – | – | – | – | – | 39.3 | > 10 | 34.6 | > 10 | – | –
11 | CO[C@@H]1CCN(c2cc(NC(=O)N3CCCc4cc(CN5CCCOC5=O)c(C=O)nc43)ncc2C#N)C1 [Example 49, (R)-N-(5-Cyano-4-(3-methoxypyrrolidin-1-yl)pyridin-2-yl)-7-formyl-6-((2-carbonyl-1,3-oxazinan-3-yl)methyl)-3,4-dihydro-1,8-naphthyridin-1(2H)-carboxamide] | – | – | – | – | – | – | 4.4 | > 10 | 11.3 | > 10 | – | –
12 | CO[C@H]1CCN(c2cc(NC(=O)N3CCCc4cc(CN5CCCOC5=O)c(C=O)nc43)ncc2C#N)C1 [Example 50, (S)-N-(5-Cyano-4-(3-methoxypyrrolidin-1-yl)pyridin-2-yl)-7-formyl-6-((2-carbonyl-1,3-oxazinan-3-yl)methyl)-3,4-dihydro-1,8-naphthyridin-1(2H)-carboxamide] | – | – | – | – | – | – | 5.5 | > 10 | 15.3 | > 10 | – | –
13 | COC1CN(c2cc(NC(=O)N3CCCc4cc(CN5CCOCC5=O)c(C=O)nc43)ncc2C#N)C1 [Example 53, N-(5-Cyano-4-(3-methoxyazetidin-1-yl)pyridin-2-yl)-7-formyl-6-((3-carbonylmorpholino)methyl)-3,4-dihydro-1,8-naphthyridin-1(2H)-carboxamide] | – | – | – | – | – | – | 41.5 | > 10 | – | > 10 | – | –
14 | COc1ccncc1Nc1cc(NC(=O)N2CCCc3cc(CN4CCOCC4=O)c(C=O)nc32)ncc1C#N [Example 58, N-(5-Cyano-4-((4-methoxypyridin-3-yl)amino)pyridin-2-yl)-7-formyl-6-((3-carbonylmorpholino)methyl)-3,4-dihydro-1,8-naphthyridin-1(2H)-carboxamide] | – | – | – | – | – | – | 6.9 | > 10 | 20.7 | > 10 | – | –
15 | CO[C@H]1CCOCC1Oc1cc(NC(=O)N2CCCc3cc(CN4CCOCC4=O)c(C=O)nc32)ncc1C#N (stereo partly drawn) [Example 69, N-(5-Cyano-4-(((3,4)-trans-3-methoxytetrahydro-2H-pyran-4-yl)oxy)pyridin-2-yl) -7-formyl-6-((3-carbonylmorpholino)methyl)-3,4-dihydro-1,8-naphthyridin-1(2H)-carboxamide] | – | – | – | – | – | – | – | – | – | – | 22.6 | > 10

From patent publication US11667631B2, “FGFR4 inhibitor, preparation method therefor, and applications thereof” (Jiangsu Hansoh Pharmaceutical Group Co., Ltd., priority 2016, dated 2023)
